Assay results published in the supplement of paper PMC2824726.
Where “and” joins values, the source holds several entries; their conditions need not be identical. Equal entries are not always repeated.

Test system: MDA-MB-231
Experiment: shRNA barcode abundance ratio t_end/t_zero (depletion over 4 weeks of proliferation) (log2 ratio); higher = less depletion (weaker anti-proliferative effect of the shRNA)
Conditions: time after t zero 28 days
Protocol: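 Pooled lentiviral negative-selection screen of 305 pGIPZ shRNAs (Open Biosystems V2LHS clones; the 21-nt half-hairpin sense stem is embedded in a mir-30 scaffold) in MDA-MB-231 breast carcinoma cells, infected at MOI 0.3 with 0.5 ug/ml puromycin selection. Barcode abundance was read on barcode tiling microarrays (six 25-nt probes per 60-nt barcode) at t_zero (5 days post-infection) and t_end (33 days; 28 days of culture after t_zero). Values are median-normalised t_end/t_zero signal ratios, averaged over the tiling probes that passed a 10-fold background filter, from three biological replicates.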

Sequence	shRNA barcode abundance ratio t end/t zero (log2)
GGCCAGAATATCATTGTCATA (targeted gene: RBKS)	-0.309
CGCAGATAGGAGTAGTCTTTA (targeted gene: NFIA)	0.432
GGACAAAGTTTACCAAATGAA (targeted gene: CASP8)	0.402
TACTGTCTTTGAGAACTATAT (targeted gene: RHOC)	0.0813
GGCCCAGTGTTTCTTCTGCTT (targeted gene: BIRC5)	-0.948
GGCCATTCATTTAATGTGCAT (targeted gene: HBXIP)	0.497
GATCCTAAGATGTGTTCTTAT (targeted gene: CYP1B1)	0.664
GGCTTTGTCTTTACAGGTAAA (targeted gene: NAIP)	0.603
GGGAATCCAGTGTGTGAAGAA (targeted gene: RELA)	0.121
GCATCAGATGATTTGTCATTA (targeted gene: BIRC2)	0.0467 and 0.133
CCTTTGAAAGTGGGTGGAATT (targeted gene: TNFAIP3)	0.0769
CGTGATTCTAAGAATCTCAAA (targeted gene: IL1A)	0.666
GCCTACAGCTGCCTCCTAGAA (targeted gene: ANXA4)	0.417
GCTCTTCATCAGGAGAAATAA (targeted gene: OPA1)	0.0963
CCGTAGCCTCTGCCCTGTAAA (targeted gene: BAG3)	0.779
GCAATTGAGAGCATTCTTAAA (targeted gene: IL3)	-0.0688
GGCAGGTATTTGACATATTAA (targeted gene: NFKB1)	0.217
GGACATGACAACTCATCTCAT (targeted gene: IL6)	0.175
GCCTCACCAGTCCATTATTAT (targeted gene: BIRC6)	0.259
GGATGTTGGAAATTACTATTA (targeted gene: HDAC1)	0.178
GCCTGCTGAATTTATGTTGTA (targeted gene: RAB6C)	-1.3
GCGGTTCTTAGAAGAGTACTT (targeted gene: DAD1)	-0.432
GGTTTGTGCCTTACATTATTA (targeted gene: PSEN1)	-1.92

Sequence	shRNA barcode abundance ratio t end/t zero (log2)
CCAACATATCTCACTCTAGAA (targeted gene: BARD1)	0.531
CCTCCGTCCCTCCTACCATAA (targeted gene: MYBL2)	0.0727
ACCTGCAGAATAATAAAGTCA (targeted gene: S100A8)	-0.295
GGTGCCTTGAGGAATACAGAA (targeted gene: NT5C3)	0.235
GGCCATTGTCACAGAGGATAA (targeted gene: MLH1)	0.62
CCAACACGTTTGAACTGAAAT (targeted gene: BIRC3)	0.578
CCAAGTAGACTCACTCCTTAA (targeted gene: BAG4)	-0.102
CCATATGTTCATTACATACAT (targeted gene: FANCF)	0.17
CCGTTATGAAAGAGAAATGAA (targeted gene: HMGB1)	-0.0571
GCAGTAGCCTTGATAGATTAT (targeted gene: BIRC6)	-0.00928
CCAGCGATGAAGAATGTGGAA (targeted gene: CFLAR)	-0.0627
CCTGTCAATATTGATGACTTG (targeted gene: BRAF)	0.319
CCTTCGCCAGATCACTGTTAA (targeted gene: PRDX2)	0.234
GGCTACAGCCTCGATTTATAT (targeted gene: IGFBP3)	0.0568
CCATAGCAAGGCCTAATGTTA (targeted gene: FANCF)	0.00383
CCACGCGACATCCAATCCATA (targeted gene: IL3)	-0.0678
GGAACTTTAGTTGAAGCGTAA (targeted gene: APAF1)	0.303
CCAGAGTAACTCTAGTCAGTT (targeted gene: NUP62)	-2.05
GCTCAACAGATCCAATTTCAT (targeted gene: RBKS)	-0.0517
CGAGCCCTGGACACCAACTAT (targeted gene: TGFB1)	0.183
GCAAAGATCCTGATATCTTAT (targeted gene: RASA1)	0.278
GCCTATGACTTTATCATGAAA (targeted gene: ABCB1)	0.0933
GGACTCTAGAATGTCCATATT (targeted gene: NUAK2)	0.326

Sequence	shRNA barcode abundance ratio t end/t zero (log2)
CGTCGTAATCACCACACTGAA (targeted gene: CDH1)	0.11
AGAGAGAACTGCTCAGTAATT (targeted gene: BRE)	0.237
CCGAATCCGCATGACTCATAA (targeted gene: HDAC1)	1.63
GCGCCGAAATTGCAGGTTTAT (targeted gene: BIRC8)	-0.37
GCTCACTCTTCAGTCGGAAAT (targeted gene: BCL2L1)	-0.368
GGAGTGAGATTGATCTGTTTA (targeted gene: ANXA5)	-0.0616
GGGAATGATCAGATTCCTTTA (targeted gene: BFAR)	0.171
GCAGAAGCTCTCCAAATTGAA (targeted gene: APAF1)	0.521
GCCGTTAACTAGGTTAATAAA (targeted gene: FANCF)	-0.0468
GCTCACTACCAAATGTTAATA (targeted gene: BAD)	0.223
CCCTGAGACCATATCCTTAAA (targeted gene: OPA1)	-0.115
GGTATTCTCATCAAGAAACTT (targeted gene: BCL2A1)	0.349
CGTTATTAACTTGTTATTTAG (targeted gene: API5)	0.468
CGAACTCCTCTTCTCAGTTAA (targeted gene: IGF1R)	0.302
CCAACCACTTCATTCTTGAAA (targeted gene: IL10)	0.022 and 0.0479
GCCGAAGATTTCACAGTCAAA (targeted gene: IGF1R)	0.225
CCGCAAAGAATCAAGTTGCAA (targeted gene: HSPA8)	-0.446
CGGACCTTAGTGAATATAAAT (targeted gene: OPA1)	-0.0398
CCAGAATCTCTGGGAATATAA (targeted gene: BFAR)	-0.109
GGCCATTATGCACAGGTTGAA (targeted gene: CD40LG)	0.119
GCTATCTCTCCTGAAGCAATA (targeted gene: BCL2A1)	0.264
GCACCTTGTTGTCATGAACTT (targeted gene: DAD1)	0.0822 and 0.0853
